PubChem BioAssay (NCI)
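96-well plates; 48 h exposure; 5 concentrations. Endpoints by linear interpolation between flanking doses. Not reached: highest tested concentration assigned. TGI: total growth inhibition.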

What was measured:
Test in all cases: NCI-60 cell line screen, 48 h
RPMI-8226 leukemia = tested on: RPMI-8226 leukemia
SK-MEL-5 melanoma = tested on: SK-MEL-5 melanoma
CCRF-CEM leukemia = tested on: CCRF-CEM leukemia
SW-620 colon = tested on: SW-620 colon
OVCAR-5 ovarian = tested on: OVCAR-5 ovarian
SNB-19 CNS = tested on: SNB-19 CNS
SF-539 CNS = tested on: SF-539 CNS
PC-3 prostate = tested on: PC-3 prostate
A549 NSCLC = tested on: A549 NSCLC
OVCAR-8 ovarian = tested on: OVCAR-8 ovarian
NCI-H460 lung = tested on: NCI-H460 lung
T-47D breast = tested on: T-47D breast
U251 CNS = tested on: U251 CNS
UACC-62 melanoma = tested on: UACC-62 melanoma
HCT-15 colon = tested on: HCT-15 colon
IGROV1 ovarian = tested on: IGROV1 ovarian
OVCAR-3 ovarian = tested on: OVCAR-3 ovarian
LOX IMVI melanoma = tested on: LOX IMVI melanoma
HOP-92 NSCLC = tested on: HOP-92 NSCLC
HOP-62 NSCLC = tested on: HOP-62 NSCLC
M14 melanoma = tested on: M14 melanoma
SF-295 CNS = tested on: SF-295 CNS
MDA-MB-435 = tested on: MDA-MB-435
786-0 renal = tested on: 786-0 renal
UO-31 renal = tested on: UO-31 renal
UACC-257 melanoma = tested on: UACC-257 melanoma
COLO 205 colon = tested on: COLO 205 colon
HCC-2998 colon = tested on: HCC-2998 colon
K-562 leukemia = tested on: K-562 leukemia
MDA-MB-231 breast = tested on: MDA-MB-231 breast
MDA-N = tested on: MDA-N
SNB-75 CNS = tested on: SNB-75 CNS
NCI-H522 lung = tested on: NCI-H522 lung
SR leukemia = tested on: SR leukemia
SF-268 CNS = tested on: SF-268 CNS
TK-10 renal = tested on: TK-10 renal
SK-MEL-28 melanoma = tested on: SK-MEL-28 melanoma
DU-145 prostate = tested on: DU-145 prostate
OVCAR-4 ovarian = tested on: OVCAR-4 ovarian
MCF7 breast = tested on: MCF7 breast
HCT-116 colon = tested on: HCT-116 colon
SK-OV-3 ovarian = tested on: SK-OV-3 ovarian
BT-549 breast = tested on: BT-549 breast
SN12C renal = tested on: SN12C renal
NCI-H23 lung = tested on: NCI-H23 lung
MOLT-4 leukemia = tested on: MOLT-4 leukemia
RXF 393 renal = tested on: RXF 393 renal
HL-60(TB) leukemia = tested on: HL-60(TB) leukemia
EKVX NSCLC = tested on: EKVX NSCLC
HT29 colon = tested on: HT29 colon

Measured: TGI

C(=C\c1ccccc1)/Cn1nc(-c2ccccc2)nc1-c1cnccn1
> 100 µM: all assays above
